Test results: ChEMBL document CHEMBL4304773, “Nitroimidazole-containing compounds and their antibacterial and antitubercular activities” (2019)

What was measured:
Format in all cases: functional
[1] = system: Escherichia coli; assay: Antibacterial activity against Escherichia coli
[2] = system: Pseudomonas aeruginosa; assay: Antibacterial activity against Pseudomonas aeruginosa
[3] = system: Staphylococcus aureus; assay: Antibacterial activity against Staphylococcus aureus
[4] = system: Bacillus subtilis; assay: Antibacterial activity against Bacillus subtilis
[5] = system: Candida albicans; assay: Antifungal activity against Candida albicans
[6] = system: Acinetobacter baumannii; assay: Antibacterial activity against Acinetobacter baumannii
[7] = system: Enterococcus faecalis; assay: Antibacterial activity against Enterococcus faecalis
[8] = system: Pseudomonas aeruginosa; assay: Antibacterial activity against Pseudomonas aeruginosa ATCC 27853
[9] = system: Staphylococcus aureus; assay: Antibacterial activity against Staphylococcus aureus ATCC 25923
[10] = system: Staphylococcus aureus; assay: Antibacterial activity against Staphylococcus aureus ATCC 29213
[11] = system: Escherichia coli; assay: Antibacterial activity against Escherichia coli ATCC 25922
[12] = system: Staphylococcus aureus; assay: Antibacterial activity against methicillin-resistant Staphylococcus aureus N315
[13] = system: Klebsiella pneumoniae; assay: Antibacterial activity against Klebsiella pneumoniae
[14] = system: Staphylococcus aureus; assay: Antibacterial activity against Staphylococcus aureus ATCC 25923 after 24 hrs; conditions: ATCC 25923, 24 h
[15] = system: Staphylococcus aureus; assay: Antibacterial activity against Staphylococcus aureus ATCC 29213 after 24 hrs; conditions: ATCC 29213, 24 h
[16] = system: Pseudomonas aeruginosa; assay: Antibacterial activity against Pseudomonas aeruginosa after 24 hrs
[17] = system: Klebsiella pneumoniae; assay: Antibacterial activity against Klebsiella pneumoniae after 24 hrs
[18] = system: Escherichia coli; assay: Antibacterial activity against Escherichia coli ATCC 25922 after 24 hrs; conditions: ATCC 25922, 24 h
[19] = system: Pseudomonas aeruginosa; assay: Antibacterial activity against Pseudomonas aeruginosa ATCC 27853 after 24 hrs; conditions: ATCC 27853, 24 h
[20] = system: Staphylococcus aureus; assay: Antibacterial activity against methicillin-resistant Staphylococcus aureus after 24 hrs
[21] = system: Enterococcus faecalis; assay: Antibacterial activity against Enterococcus faecalis after 24 hrs

Measured: MIC

COc1ccccc1Cc1nnc(Cn2c([N+](=O)[O-])cnc2C)o1
3.12 to 4.56 µg/mL: [1] | [2] | [3] | [4]

CC(=O)N1N=C(Cn2c([N+](=O)[O-])cnc2C)OC1c1ccc(Cl)cc1 (configuration not stated)
0.25 to 0.5 µg/mL: [1] | [2] | [3] | [5] | [4]

CC(=O)N1N=C(Cn2c([N+](=O)[O-])cnc2C)OC1c1ccc(C)cc1 (configuration not stated)
0.25 to 0.5 µg/mL: [1] | [2] | [3] | [5] | [4]

COc1ccc(C2OC(Cn3c([N+](=O)[O-])cnc3C)=NN2C(C)=O)cc1 (configuration not stated)
0.25 to 0.5 µg/mL: [1] | [2] | [3] | [5] | [4]

COc1ccc(C2(C)OC(Cn3c([N+](=O)[O-])cnc3C)=NN2C(C)=O)cc1 (configuration not stated)
0.25 to 0.5 µg/mL: [1] | [2] | [3] | [5] | [4]

CC(=O)N1N=C(Cn2c([N+](=O)[O-])cnc2C)OC1c1ccc2c(c1)OCO2 (configuration not stated)
0.25 to 0.5 µg/mL: [1] | [2] | [3] | [5] | [4]

Cc1ncc([N+](=O)[O-])n1CC(O)CN1C(=O)c2cccc3c(N4CCCC4)ccc(c23)C1=O (configuration not stated)
69 to 1140 µM: [6] | [1] | [7] | [8] | [9] | [2] | [10] | [11] | [12] | [13]

Cc1ncc([N+](=O)[O-])n1CC(O)CN1C(=O)c2cccc3c(N4CCNCC4)ccc(c23)C1=O (configuration not stated)
69 to 1140 µM: [6] | [1] | [7] | [8] | [9] | [2] | [10] | [11] | [12] | [13]

Cc1ncc([N+](=O)[O-])n1CC(O)CN1C(=O)c2cccc3c(N4CCOCC4)ccc(c23)C1=O (configuration not stated)
69 to 1140 µM: [6] | [1] | [7] | [8] | [9] | [2] | [10] | [11] | [12] | [13]

CCCCCCOc1c(OC)cc(/C=C(\C#N)n2cc([N+](=O)[O-])nc2C)c2c1CN1CCc3cc4c(cc3C1C2)OCO4 (configuration not stated)
3 to 1020 µM: [14] | [15] | [16] | [17] | [18] | [19] | [20] | [21]

CC(=O)N1N=C(Cn2c([N+](=O)[O-])cnc2C)OC1c1ccc([N+](=O)[O-])cc1 (configuration not stated)
0.25 to 0.5 µg/mL: [1] | [2] | [3] | [5] | [4]

CCCCCCCCOc1c(OC)cc(/C=C(\C#N)n2cc([N+](=O)[O-])nc2C)c2c1CN1CCc3cc4c(cc3C1C2)OCO4 (configuration not stated)
3 to 1020 µM: [14] | [15] | [16] | [17] | [18] | [19] | [20] | [21]

C=CCOc1c(OC)cc(/C=C(\C#N)n2cc([N+](=O)[O-])nc2C)c2c1CN1CCc3cc4c(cc3C1C2)OCO4 (configuration not stated)
3 to 1020 µM: [14] | [15] | [16] | [17] | [18] | [19] | [20] | [21]

COc1cc(/C=C(\C#N)n2cc([N+](=O)[O-])nc2C)c2c(c1OCc1ccc(Cl)cc1)CN1CCc3cc4c(cc3C1C2)OCO4 (configuration not stated)
3 to 1020 µM: [14] | [15] | [16] | [17] | [18] | [19] | [20] | [21]

COc1cc(/C=C(\C#N)n2cc([N+](=O)[O-])nc2C)c2c(c1OCc1ccccc1Cl)CN1CCc3cc4c(cc3C1C2)OCO4 (configuration not stated)
3 to 1020 µM: [14] | [15] | [16] | [17] | [18] | [19] | [20] | [21]

COc1cc(/C=C(\C#N)n2cc([N+](=O)[O-])nc2C)c2c(c1OCC(C)=O)CN1CCc3cc4c(cc3C1C2)OCO4 (configuration not stated)
3 to 1020 µM: [14] | [15] | [16] | [17] | [18] | [19] | [20] | [21]

Cc1nc([N+](=O)[O-])cn1Cc1nn(CN2CCNCC2)c(=S)o1
184 µM: [3]

COc1cc(/C=C(\C#N)n2cc([N+](=O)[O-])nc2C)c2c(c1OCc1ccc([N+](=O)[O-])cc1)CN1CCc3cc4c(cc3C1C2)OCO4 (configuration not stated)
3 to 1020 µM: [14] | [15] | [16] | [17] | [18] | [19] | [20] | [21]

CC(=O)N1N=C(Cn2c([N+](=O)[O-])cnc2C)OC1(C)c1ccc([N+](=O)[O-])cc1 (configuration not stated)
0.25 to 0.5 µg/mL: [1] | [2] | [3] | [5] | [4]

CC(=O)N1N=C(Cn2c([N+](=O)[O-])cnc2C)OC1(C)c1ccc(Br)cc1 (configuration not stated)
0.25 to 0.5 µg/mL: [1] | [2] | [3] | [5] | [4]

COc1cc(/C=C(\C#N)n2cc([N+](=O)[O-])nc2C)c2c(c1OCc1ccc(Cl)cc1Cl)CN1CCc3cc4c(cc3C1C2)OCO4 (configuration not stated)
3 to 1020 µM: [14] | [15] | [16] | [17] | [18] | [19] | [20] | [21]

CC(=O)N1N=C(Cn2c([N+](=O)[O-])cnc2C)OC1(C)c1ccc(C)cc1 (configuration not stated)
0.25 to 0.5 µg/mL: [1] | [2] | [3] | [5] | [4]

COc1cc(/C=C(\C#N)n2cc([N+](=O)[O-])nc2C)c2c(c1OCCO)CN1CCc3cc4c(cc3C1C2)OCO4 (configuration not stated)
3 to 1020 µM: [14] | [15] | [16] | [17] | [18] | [19] | [20] | [21]

CCOc1c(OC)cc(/C=C(\C#N)n2cc([N+](=O)[O-])nc2C)c2c1CN1CCc3cc4c(cc3C1C2)OCO4 (configuration not stated)
3 to 1020 µM: [14] | [15] | [16] | [17] | [18] | [19] | [20] | [21]

COc1cc(/C=C(\C#N)n2cc([N+](=O)[O-])nc2C)c2c(c1OCC#N)CN1CCc3cc4c(cc3C1C2)OCO4 (configuration not stated)
3 to 1020 µM: [14] | [15] | [16] | [17] | [18] | [19] | [20] | [21]

CCCCOc1c(OC)cc(/C=C(\C#N)n2cc([N+](=O)[O-])nc2C)c2c1CN1CCc3cc4c(cc3C1C2)OCO4 (configuration not stated)
3 to 1020 µM: [14] | [15] | [16] | [17] | [18] | [19] | [20] | [21]

COc1cc(/C=C(\C#N)n2cc([N+](=O)[O-])nc2C)c2c(c1OCc1cccc(Cl)c1)CN1CCc3cc4c(cc3C1C2)OCO4 (configuration not stated)
3 to 1020 µM: [14] | [15] | [16] | [17] | [18] | [19] | [20] | [21]

CCCCCCCCCCOc1c(OC)cc(/C=C(\C#N)n2cc([N+](=O)[O-])nc2C)c2c1CN1CCc3cc4c(cc3C1C2)OCO4 (configuration not stated)
3 to 1020 µM: [14] | [15] | [16] | [17] | [18] | [19] | [20] | [21]

CC(=O)N1N=C(Cn2c([N+](=O)[O-])cnc2C)OC1(C)c1ccccc1 (configuration not stated)
0.25 to 0.5 µg/mL: [1] | [2] | [3] | [5] | [4]

Cc1ncc([N+](=O)[O-])n1CC(O)CN1C(=O)c2cccc3c(N4CCCCC4)ccc(c23)C1=O (configuration not stated)
69 to 1140 µM: [6] | [1] | [7] | [8] | [9] | [2] | [10] | [11] | [12] | [13]

C#CCOc1c(OC)cc(/C=C(\C#N)n2cc([N+](=O)[O-])nc2C)c2c1CN1CCc3cc4c(cc3C1C2)OCO4 (configuration not stated)
3 to 1020 µM: [14] | [15] | [16] | [17] | [18] | [19] | [20] | [21]

COc1ccc2cc3[n+](cc2c1OC)CCc1cc2c(cc1-3)OCO2 [BERBERINE]
11 to 688 µM: [14] | [15] | [16] | [17] | [18] | [19] | [20] | [21]

OC(Cn1cncn1)(Cn1cncn1)c1ccc(F)cc1F [FLUCONAZOLE]
0.25 µg/mL: [1] | [2] | [3] | [5] | [4]

NC[C@H]1O[C@H](O[C@H]2[C@H](O)[C@@H](O[C@H]3O[C@H](CO)[C@@H](O)[C@H](N)[C@H]3O)[C@H](N)C[C@@H]2N)[C@H](O)[C@@H](O)[C@@H]1O [KANAMYCIN]
1.56 to 3.12 µg/mL: [1] | [2] | [3] | [4]

NC(=O)N/N=C/c1ccc([N+](=O)[O-])o1 [NITROFURAZONE]
0.25 to 0.5 µg/mL: [1] | [2] | [3] | [5] | [4]
